According to patent US10167262B2, “Herbicidal substituted 3-arylpyrazoles” (FMC CORPORATION, priority 2014, dated 2019):

Tests used:
Type in all cases: in vivo
[1] = system: barnyardgrass (Echinochloa crus-galli); assay: Test B flooded paddy test, plant response rating 0-100; conditions: Flood, 250 g ai/ha; scale 0 to 100 (0 no effect, 100 complete control); 13 to 15 days
Method in brief: (§1)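 Compound was added to standing water 3 cm above soil, flood maintained, and plants held in a greenhouse before visual scoring against controls at 13 to 15 days.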

[2] = system: ducksalad (Heteranthera limosa); assay: as above; conditions: Flood, 250 g ai/ha; scale 0 to 100 (0 no effect, 100 complete control); 13 to 15 days
Method in brief: as §1

[3] = system: rice (Oryza sativa); assay: as above; conditions: Flood, 250 g ai/ha; scale 0 to 100 (0 no effect, 100 complete control); 13 to 15 days
Method in brief: as §1

[4] = system: sedge, umbrella (small-flower umbrella sedge, Cyperus difformis); assay: as above; conditions: Flood, 250 g ai/ha; scale 0 to 100 (0 no effect, 100 complete control); 13 to 15 days
Method in brief: as §1

[5] = system: barnyardgrass (Echinochloa crus-galli); assay: Test C pre-/postemergence greenhouse test, plant response rating 0-100
Method in brief: (§2)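 Two application timings: preemergence onto seeded loam/sand soil and postemergence onto plants at the 1–4 leaf stage (2–18 cm) in peat/vermiculite medium. Formulation: non-phytotoxic solvent with surfactant. Read-out: visual control rating, 0–100, at 13–15 days after treatment.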

[6] = system: waterhemp (common waterhemp, Amaranthus rudis); assay: as above
Method in brief: as §2

[7] = system: Italian ryegrass (Lolium multiflorum); assay: Test E pre-/postemergence greenhouse test, plant response rating 0-100; conditions: scale 0 to 100; for pest or weed control at 125 g/ha / pest or weed control at 500 g/ha / pest or weed control at 31 g/ha / pest or weed control at 62 g/ha / pest or weed control at 250 g/ha: Lolium multiflorum, post-emergence, Postemergence; for Ryegrass, Italian plant response rating: Preemergence
Method in brief: (§3)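 Each species was tested both preemergence, with chemicals sprayed onto freshly planted silt loam, and postemergence, on plants 2 to 18 cm tall in a peat-based medium; the vehicle was a non-phytotoxic solvent mixture with surfactant. After 14 to 21 days in the greenhouse, growth was visually compared with controls and scored 0–100.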

[8] = system: dayflower (Virginia (VA) dayflower, Commelina virginica); assay: as above; conditions: scale 0 to 100; for pest or weed control at 125 g/ha / pest or weed control at 500 g/ha / pest or weed control at 31 g/ha / pest or weed control at 62 g/ha / pest or weed control at 250 g/ha: Commelina virginica, post-emergence, Postemergence; for pest or weed control at 250 g/ha: 250 g ai/ha; for Dayflower, VA plant response rating: Preemergence
Method in brief: as §3

[9] = system: field bindweed (Convolvulus arvensis); assay: as above; conditions: scale 0 to 100; for pest or weed control at 125 g/ha / pest or weed control at 500 g/ha / pest or weed control at 31 g/ha / pest or weed control at 62 g/ha / pest or weed control at 250 g/ha: Convolvulus arvensis, post-emergence, Postemergence; for Field Bindweed plant response rating: Preemergence
Method in brief: as §3

[10] = system: waterhemp_RES2, (ALS & HPPD resistant common waterhemp, Amaranthus rudis); assay: Test E postemergence greenhouse test, plant response rating 0-100; conditions: scale 0 to 100
Method in brief: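 Visual ratings, 0 (no effect) to 100 (complete control), made versus controls 14–21 days after postemergence application in the greenhouse. Plants were at 1- to 4-leaf stage (2–18 cm) in peat moss/vermiculite potting medium.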

[11] = Postemergence, 125 g ai/ha, scale 0 to 100
[12] = Postemergence, 250 g ai/ha, scale 0 to 100
[13] = Postemergence, 500 g ai/ha, scale 0 to 100

COC(OC)(c1ccccc1)c1c[nH]nc1-c1cc(Cl)cc(Cl)c1 [Compound 13, 3-(3,5-dichlorophenyl)-4-(dimethoxyphenylmethyl)-1H-pyrazole]
100: Plant response rating (0 to 100), Waterhemp ([6]; Postemergence, 62 g ai/ha) | Plant response rating (0 to 100), Waterhemp ([6]; Postemergence, 125 g ai/ha) | Plant response rating, Waterhemp [6, 12] | Plant response rating, Waterhemp [6, 13] | Plant response rating, Waterhemp ([6]; Preemergence, 62 g ai/ha) | Plant response rating, Waterhemp ([6]; Preemergence, 125 g ai/ha) | Plant response rating, Waterhemp ([6]; Preemergence, 250 g ai/ha) | Plant response rating, Waterhemp ([6]; Preemergence, 500 g ai/ha)
75: Plant response rating, Waterhemp_RES2 ([10]; 125 g ai/ha)
0%: pest or weed control at 125 g/ha ([7]; 125 g ai/ha) | pest or weed control at 500 g/ha ([7]; 500 g ai/ha) | pest or weed control at 125 g/ha ([9]; 125 g ai/ha)
10%: pest or weed control at 125 g/ha ([8]; 125 g ai/ha) | pest or weed control at 500 g/ha ([8]; 500 g ai/ha) | pest or weed control at 500 g/ha ([9]; 500 g ai/ha)
95: Plant response rating, Waterhemp_RES2 ([10]; 500 g ai/ha)
0: Plant response rating, Barnyardgrass [1] | Plant response rating, Ducksalad [2] | Plant response rating, Rice [3] | Plant response rating, Sedge, Umbrella [4] | Plant response rating (0 to 100), Barnyardgrass ([5]; Postemergence, 62 g ai/ha) | Plant response rating, Barnyardgrass [5, 11] | Plant response rating, Barnyardgrass [5, 12] | Plant response rating, Barnyardgrass [5, 13] | Plant response rating, Barnyardgrass ([5]; Preemergence, 62 g ai/ha) | Plant response rating, Barnyardgrass ([5]; Preemergence, 125 g ai/ha) | Plant response rating, Barnyardgrass ([5]; Preemergence, 250 g ai/ha) | Plant response rating, Barnyardgrass ([5]; Preemergence, 500 g ai/ha)

CCOC(OCC)(c1ccccc1)c1c[nH]nc1-c1cc(Cl)cc(Cl)c1 [Compound 14, 3-(3,5-dichlorophenyl)-4-(diethoxyphenylmethyl)-1H-pyrazole]
90: Plant response rating, Waterhemp_RES2 ([10]; 125 g ai/ha)
100: Plant response rating (0 to 100), Waterhemp ([6]; Postemergence, 62 g ai/ha) | Plant response rating, Waterhemp [6, 12] | Plant response rating, Waterhemp [6, 13] | Plant response rating, Waterhemp ([6]; Preemergence, 62 g ai/ha) | Plant response rating, Waterhemp ([6]; Preemergence, 125 g ai/ha) | Plant response rating, Waterhemp ([6]; Preemergence, 250 g ai/ha) | Plant response rating, Waterhemp ([6]; Preemergence, 500 g ai/ha)
75: Plant response rating, Waterhemp_RES2 ([10]; 31 g ai/ha)
85: Plant response rating, Waterhemp_RES2 ([10]; 62 g ai/ha)
0: Plant response rating, Barnyardgrass [1] | Plant response rating, Ducksalad [2] | Plant response rating, Rice [3] | Plant response rating, Sedge, Umbrella [4] | Plant response rating (0 to 100), Barnyardgrass ([5]; Postemergence, 62 g ai/ha) | Plant response rating, Barnyardgrass [5, 11] | Plant response rating, Barnyardgrass [5, 12] | Plant response rating, Barnyardgrass [5, 13] | Plant response rating, Barnyardgrass ([5]; Preemergence, 62 g ai/ha) | Plant response rating, Barnyardgrass ([5]; Preemergence, 125 g ai/ha) | Plant response rating, Barnyardgrass ([5]; Preemergence, 250 g ai/ha) | Plant response rating, Barnyardgrass ([5]; Preemergence, 500 g ai/ha)
0%: pest or weed control at 31 g/ha ([7]; 31 g ai/ha) | pest or weed control at 62 g/ha ([7]; 62 g ai/ha) | pest or weed control at 125 g/ha ([7]; 125 g ai/ha) | pest or weed control at 250 g/ha ([7]; 250 g ai/ha) | pest or weed control at 500 g/ha ([7]; 500 g ai/ha) | pest or weed control at 31 g/ha ([8]; 31 g ai/ha) | pest or weed control at 62 g/ha ([8]; 62 g ai/ha) | pest or weed control at 125 g/ha ([8]; 125 g ai/ha) | pest or weed control at 250 g/ha [8] | pest or weed control at 500 g/ha ([8]; 500 g ai/ha) | pest or weed control at 31 g/ha ([9]; 31 g ai/ha) | pest or weed control at 62 g/ha ([9]; 62 g ai/ha) | pest or weed control at 125 g/ha ([9]; 125 g ai/ha) | pest or weed control at 250 g/ha ([9]; 250 g ai/ha) | pest or weed control at 500 g/ha ([9]; 500 g ai/ha)
95: Plant response rating (0 to 100), Waterhemp ([6]; Postemergence, 125 g ai/ha) | Plant response rating, Waterhemp_RES2 ([10]; 250 g ai/ha) | Plant response rating, Waterhemp_RES2 ([10]; 500 g ai/ha)

O=C(c1ccccc1)c1cn(CO)nc1-c1cc(Cl)cc(Cl)c1 [Compound 15, [3-(3,5-dichlorophenyl)-1-(hydroxymethyl)-1H-pyrazol-4-yl]phenylmethanone]
70: Plant response rating, Waterhemp_RES2 ([10]; 62 g ai/ha)
0: Plant response rating, Barnyardgrass [1] | Plant response rating, Ducksalad [2] | Plant response rating, Rice [3] | Plant response rating, Sedge, Umbrella [4] | Plant response rating (0 to 100), Barnyardgrass ([5]; Postemergence, 62 g ai/ha) | Plant response rating, Barnyardgrass [5, 11] | Plant response rating, Barnyardgrass [5, 12] | Plant response rating, Barnyardgrass [5, 13] | Plant response rating, Barnyardgrass ([5]; Preemergence, 31 g ai/ha) | Plant response rating, Barnyardgrass ([5]; Preemergence, 62 g ai/ha) | Plant response rating, Barnyardgrass ([5]; Preemergence, 125 g ai/ha) | Plant response rating, Barnyardgrass ([5]; Preemergence, 250 g ai/ha) | Ryegrass, Italian plant response rating ([7]; 31 g ai/ha) | Ryegrass, Italian plant response rating ([7]; 62 g ai/ha) | Ryegrass, Italian plant response rating ([7]; 125 g ai/ha) | Ryegrass, Italian plant response rating ([7]; 250 g ai/ha) | Ryegrass, Italian plant response rating ([7]; 500 g ai/ha) | Dayflower, VA plant response rating ([8]; 31 g ai/ha) | Dayflower, VA plant response rating ([8]; 62 g ai/ha) | Dayflower, VA plant response rating ([8]; 125 g ai/ha) | Dayflower, VA plant response rating ([8]; 500 g ai/ha) | Field Bindweed plant response rating ([9]; 31 g ai/ha) | Field Bindweed plant response rating ([9]; 62 g ai/ha) | Field Bindweed plant response rating ([9]; 125 g ai/ha) | Field Bindweed plant response rating ([9]; 250 g ai/ha) | Field Bindweed plant response rating ([9]; 500 g ai/ha)
60: Plant response rating, Waterhemp_RES2 ([10]; 31 g ai/ha)
65: Plant response rating (0 to 100), Waterhemp ([6]; Postemergence, 62 g ai/ha)
98: Plant response rating, Waterhemp_RES2 ([10]; 500 g ai/ha)
0%: pest or weed control at 31 g/ha ([7]; 31 g ai/ha) | pest or weed control at 62 g/ha ([7]; 62 g ai/ha) | pest or weed control at 125 g/ha ([7]; 125 g ai/ha) | pest or weed control at 250 g/ha ([7]; 250 g ai/ha) | pest or weed control at 500 g/ha ([7]; 500 g ai/ha) | pest or weed control at 31 g/ha ([8]; 31 g ai/ha) | pest or weed control at 62 g/ha ([8]; 62 g ai/ha) | pest or weed control at 125 g/ha ([8]; 125 g ai/ha) | pest or weed control at 250 g/ha [8] | pest or weed control at 500 g/ha ([8]; 500 g ai/ha) | pest or weed control at 31 g/ha ([9]; 31 g ai/ha) | pest or weed control at 62 g/ha ([9]; 62 g ai/ha) | pest or weed control at 125 g/ha ([9]; 125 g ai/ha) | pest or weed control at 250 g/ha ([9]; 250 g ai/ha) | pest or weed control at 500 g/ha ([9]; 500 g ai/ha)
75: Plant response rating, Waterhemp_RES2 ([10]; 125 g ai/ha)
90: Plant response rating, Waterhemp_RES2 ([10]; 250 g ai/ha)
100: Plant response rating, Waterhemp [6, 12] | Plant response rating, Waterhemp [6, 13] | Plant response rating, Waterhemp ([6]; Preemergence, 62 g ai/ha) | Plant response rating, Waterhemp ([6]; Preemergence, 125 g ai/ha) | Plant response rating, Waterhemp ([6]; Preemergence, 250 g ai/ha)
95: Plant response rating (0 to 100), Waterhemp ([6]; Postemergence, 125 g ai/ha)
